Structures are written as SMILES.

For one assay, the system named is S. aureus RN4220 [pOX7]. Description: MIC of pristinamycin IIA for S. aureus RN4220 carrying the shuttle vector pOX7. Format: cell-based. The settings on record: Staphylococcus aureus; S. aureus recipient RN4220 with empty shuttle vector pOX7. As for the experimental part: (§1) A DNA fragment of 858 nt containing vatE (nt 104 to nt 961, Accession No. AF153312) was amplified from pIP1798 and inserted between the EcoRI and SmaI sites of the shuttle vector, pOX7 (11). The resulting plasmid, pIP1801, introduced by electroporation in the S. aureus recipient, RN4220 (15), conferred resistance to pristinamycin IIA (MICs: 2 μg/ml for RN4220 [pOX7] and 8 μg/ml for RN4220 [pIP1801]).

Assay [1] deals with S. aureus RN4220 [pIP1801]. Description: MIC of pristinamycin IIA for S. aureus RN4220 carrying pIP1801 (vatE). Format: cell-based. Conditions: Staphylococcus aureus; S. aureus recipient RN4220 with pIP1801 (pOX7 carrying vatE), introduced by electroporation. Here is the method:
as §1

For `CC1=C\[C@@H](O)CC(=O)Cc2nc(co2)C(=O)N2CCC=C2C(=O)O[C@H](C(C)C)[C@H](C)/C=C/C(=O)NC\C=C\1` [pristinamycin IIA], the MIC – broadly, the smallest concentration in the dilution series that meets the test's criterion for growth inhibition – came to 2 µg/mL with S. aureus RN4220 [pOX7] and 8 µg/mL in assay [1].
